Assay results taken from PubChem BioAssay AID248 (DTP/NCI, 2004).
“And” between values parts separate entries of the source, which are not always exact repeats. Equal entries are not always repeated. Toxic doses and inconclusive results are not listed. Cut-off read from the data, not from the text of the source: active = T/C of 150% or more; inactive = T/C below 125%.

System: L1210 leukemia ip in BDF1 mice, survival T/C
Experiment: NCI In Vivo Anticancer Drug Screen. Data for tumor model L1210 Leukemia (intraperitoneal) in B6D2F1 (BDF1) mice
Conditions: endpoint: mean survival time, higher = longer survival
Procedure, shortened: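 Transplanted-tumor mice were given test agent; controls received vehicle only. Survival readings from the two groups were divided (treated over control).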

[1] = dose: 100.0 mg/kg/injection, schedule: Q01DX001 (ip), vehicle: Klucel (hydroxypropylcellulose) (HPC)
[2] = dose: 100.0 mg/kg/injection, schedule: Q01DX009 (ip), vehicle: Klucel (hydroxypropylcellulose) (HPC)
[3] = dose: 200.0 mg/kg/injection, schedule: Q01DX001 (ip), vehicle: Klucel (hydroxypropylcellulose) (HPC)
[4] = dose: 200.0 mg/kg/injection, schedule: Q01DX009 (ip), vehicle: Klucel (hydroxypropylcellulose) (HPC)
[5] = dose: 400.0 mg/kg/injection, schedule: Q01DX001 (ip), vehicle: Klucel (hydroxypropylcellulose) (HPC)
[6] = dose: 400.0 mg/kg/injection, schedule: Q01DX009 (ip), vehicle: Klucel (hydroxypropylcellulose) (HPC)
[7] = dose: 100.0 mg/kg/injection, schedule: Q04DX003 (ip), vehicle: Klucel (hydroxypropylcellulose) (HPC)
[8] = dose: 200.0 mg/kg/injection, schedule: Q04DX003 (ip), vehicle: Klucel (hydroxypropylcellulose) (HPC)
[9] = dose: 400.0 mg/kg/injection, schedule: Q04DX003 (ip), vehicle: Klucel (hydroxypropylcellulose) (HPC)
[10] = dose: 100.0 mg/kg/injection, schedule: Q01DX009 (ip), vehicle: saline with Tween-80
[11] = dose: 100.0 mg/kg/injection, schedule: Q04DX003 (ip), vehicle: saline with Tween-80
[12] = dose: 200.0 mg/kg/injection, schedule: Q01DX009 (ip), vehicle: saline with Tween-80
[13] = dose: 200.0 mg/kg/injection, schedule: Q04DX003 (ip), vehicle: saline with Tween-80
[14] = dose: 400.0 mg/kg/injection, schedule: Q01DX009 (ip), vehicle: saline with Tween-80
[15] = dose: 100.0 mg/kg/injection, schedule: Q04DX002 (ip), vehicle: saline with Tween-80
[16] = dose: 200.0 mg/kg/injection, schedule: Q04DX002 (ip), vehicle: saline with Tween-80
[17] = dose: 75.0 mg/kg/injection, schedule: Q01DX001 (ip), vehicle: other
[18] = dose: 100.0 mg/kg/injection, schedule: Q04DX003 (ip), vehicle: saline
[19] = dose: 200.0 mg/kg/injection, schedule: Q04DX003 (ip), vehicle: saline
[20] = dose: 400.0 mg/kg/injection, schedule: Q04DX003 (ip), vehicle: saline

Measured: T/C

COc1cc2cc(C)c(C)cc2cc1OC
inactive: [1] 98 % of control | [2] 103 % of control | [3] 101 % of control | [4] 110 % of control | [5] 98 % of control | [6] 109 % of control

c1ccc2cc(C3OCCCO3)ccc2c1
inactive: [1] 94 % of control | [3] 100 % of control | [5] 100 % of control

COC(=O)CC(Cc1cc(OC)ccc1OC)(C(=O)OC)C(=O)OC
inactive: dose: 12.5 mg/kg/injection, schedule: Q04DX003 (ip), vehicle: Klucel (hydroxypropylcellulose) (HPC) 102 % of control | dose: 25.0 mg/kg/injection, schedule: Q04DX003 (ip), vehicle: Klucel (hydroxypropylcellulose) (HPC) 94 % of control | dose: 50.0 mg/kg/injection, schedule: Q04DX003 (ip), vehicle: Klucel (hydroxypropylcellulose) (HPC) 98 % of control | [1] 106 % of control | [7] 105 % of control | [3] 97 % of control | [8] 103 % of control | [5] 98 % of control | [9] 105 % of control

CCCCC(=O)N/N=C\c1cccc2ccccc12
inactive: dose: 100.0 mg/kg/injection, schedule: Q01DX001 (ip), vehicle: carboxymethylcellulose (CMC) 86 % of control | dose: 200.0 mg/kg/injection, schedule: Q01DX001 (ip), vehicle: carboxymethylcellulose (CMC) 88 % of control | dose: 400.0 mg/kg/injection, schedule: Q01DX001 (ip), vehicle: carboxymethylcellulose (CMC) 96 % of control

CC[N+](CC)(CC)CCCNC(=O)C12CC3CC(CC(C3)C1)C2
inactive: dose: 25.0 mg/kg/injection, schedule: Q04DX002 (ip), vehicle: saline 95 % of control | dose: 50.0 mg/kg/injection, schedule: Q04DX002 (ip), vehicle: saline 101 % of control

c1ccc(-c2nc(N=C3N=c4ccccc4=N3)[nH]c2-c2ccccc2)cc1
inactive: [7] 112 % of control | [8] 100 % of control | [9] 96 % of control

OCCN=C1c2cc(Cl)ccc2-c2c(Cl)cc(Cl)cc21
inactive: [7] 103 % of control | [8] 97 % of control | [9] 87 % of control

NC(c1ccccc1)C(N)c1ccccc1 (stereo not drawn)
inactive: dose: 50.0 mg/kg/injection, schedule: Q01DX009 (ip), vehicle: saline with Tween-80 104 % of control | [10] 102 % of control and 92 % of control | dose: 100.0 mg/kg/injection, schedule: Q04DX003 (ip), vehicle: other 91 % of control | [11] 98 % of control | [12] 95 % of control and 110 % of control | [13] 96 % of control | [14] 98 % of control

CCOC(=O)c1ccc(NC(=O)c2ccc(Cl)c(Cl)c2)cc1
inactive: dose: 100.0 mg/kg/injection, schedule: Q01DX001 (ip), vehicle: saline with Tween-80 112 % of control | [10] 97 % of control | [15] 97 % of control and 91 % of control | [11] 104 % of control | dose: 200.0 mg/kg/injection, schedule: Q01DX001 (ip), vehicle: saline with Tween-80 115 % of control | [12] 93 % of control and 101 % of control | [16] 93 % of control and 87 % of control | [13] 108 % of control | dose: 400.0 mg/kg/injection, schedule: Q01DX001 (ip), vehicle: saline with Tween-80 93 % of control | [14] 103 % of control and 114 % of control | dose: 400.0 mg/kg/injection, schedule: Q04DX002 (ip), vehicle: saline with Tween-80 93 % of control and 92 % of control | dose: 400.0 mg/kg/injection, schedule: Q04DX003 (ip), vehicle: saline with Tween-80 97 % of control

CC1=CC(=O)C(c2ccc(O)cc2O)=CC1=O
inactive: [17] 101 % of control

CC1(C#N)c2ccccc2C=CN1C(=O)c1ccccc1 (stereo not drawn)
inactive: [2] 97 % of control | [4] 95 % of control | [6] 92 % of control

COc1cc(NC(C)CCCN)c2nc(OCc3ccccc3)ccc2c1 (stereo not drawn)
inactive: dose: 6.25 mg/kg/injection, schedule: Q01DX009 (ip), vehicle: saline with Tween-80 96 % of control | dose: 6.25 mg/kg/injection, schedule: Q04DX003 (ip), vehicle: saline with Tween-80 96 % of control | dose: 12.5 mg/kg/injection, schedule: Q01DX009 (ip), vehicle: saline with Tween-80 98 % of control | dose: 12.5 mg/kg/injection, schedule: Q04DX003 (ip), vehicle: saline with Tween-80 93 % of control | dose: 25.0 mg/kg/injection, schedule: Q01DX009 (ip), vehicle: saline with Tween-80 97 % of control | dose: 25.0 mg/kg/injection, schedule: Q04DX003 (ip), vehicle: saline with Tween-80 99 % of control

O=C(OCCO)c1ccc(O)cc1
inactive: dose: 100.0 mg/kg/injection, schedule: Q01DX001 (ip), vehicle: saline 88 % of control | dose: 200.0 mg/kg/injection, schedule: Q01DX001 (ip), vehicle: saline 93 % of control | dose: 400.0 mg/kg/injection, schedule: Q01DX001 (ip), vehicle: saline 88 % of control

Cc1cccc(C)c1C(Cl)CS(=O)(=O)c1ccccc1 (stereo not drawn)
inactive: [7] 102 % of control | [8] 107 % of control | [9] 107 % of control

O=C(N/N=C/c1c(O)ccc2ccccc12)c1ccccc1
inactive: [2] 113 % of control | [4] 103 % of control | [6] 108 % of control

CCCCNC(=O)Nc1ccccc1OCC
inactive: [2] 93 % of control | [7] 94 % of control | [4] 92 % of control | [8] 104 % of control | [6] 97 % of control | [9] 94 % of control

CCOC(=O)CCCCCCCCCC[N+](CC)(CC)CC(=O)c1ccc(NC(C)=O)cc1
inactive: [17] 96 % of control | dose: 150.0 mg/kg/injection, schedule: Q01DX001 (ip), vehicle: other 101 % of control

CC(C)OC1=CC2C(=CCC3C2(C)C(=O)CC2(C)C(C(C)(O)C(=O)/C=C/C(C)(C)O)C(O)CC32C)C(C)(C)C1=O (stereo not drawn)
inactive: dose: 37.5 mg/kg/injection, schedule: Q04DX002 (ip), vehicle: saline with Tween-80 101 % of control | dose: 75.0 mg/kg/injection, schedule: Q04DX002 (ip), vehicle: saline with Tween-80 93 % of control | dose: 150.0 mg/kg/injection, schedule: Q04DX002 (ip), vehicle: saline with Tween-80 108 % of control

CCN(C)CCC(CN)(CCN(C)CC)c1cccc2ccccc12
inactive: dose: 12.5 mg/kg/injection, schedule: Q04DX003 (ip), vehicle: saline 93 % of control | dose: 25.0 mg/kg/injection, schedule: Q04DX003 (ip), vehicle: saline 101 % of control | dose: 50.0 mg/kg/injection, schedule: Q04DX003 (ip), vehicle: saline 93 % of control

c1ccc(CNc2ncnc3c2ncn3Cc2ccccc2)cc1
inactive: [1] 94 % of control | [3] 104 % of control | [5] 98 % of control

COc1cc(N)ccc1/C=C/C(=O)O
inactive: [18] 97 % of control | [19] 98 % of control | [20] 92 % of control

CCCCC(=O)N1CCCCCC1
inactive: [15] 105 % of control | [16] 87 % of control

c1ccc(CCCCc2ccccn2)cc1
inactive: [2] 105 % of control | [7] 101 % of control | [4] 105 % of control | [8] 105 % of control | [6] 97 % of control | [9] 94 % of control

O=C(CSc1ccc([N+](=O)[O-])cn1)c1ccc(Br)cc1
inactive: [18] 102 % of control | [19] 98 % of control | [20] 102 % of control
